Test results from patent US20100196929A1, “STABILISATION OF THE PHENOTYPIC PROPERTIES OF ISOLATED PRIMARY CELLS” (Vrije Universiteit Brussel, priority 2007, published 2010).

Tests used:
hepatoma cell lines = settings: cited from earlier work
primary hepatocytes = settings: cited from earlier work
[1] = tested on: EGF-stimulated adult primary rat hepatocytes; experiment: DNA synthesis ([methyl-3H]-thymidine incorporation) in EGF-stimulated hepatocytes; format: cell-based; settings: 72 hours; for dose-response of inhibition of DNA replication: increasing concentrations (4-Me2N-BAVAH 10-50 μM, AN-8 1-5 μM, DAC 1-500 μM)
Procedure: (§1) Hepatocytes (viability >80%) were isolated from male Sprague-Dawley rats by a two-step collagenase perfusion. Cells (0.4×10^5 cells/cm^2) were cultured in MEM/M199 (3:1, v/v), containing 1 mg/ml BSA, 5 μg/ml bovine insulin, 2 mM L-glutamine, antibiotics (7.3 IU/ml benzyl penicillin, 50 μg/ml streptomycin sulphate, 50 μg/ml kanamycin monosulphate and 10 μg/ml sodium ampicillin) and 10% (v/v) fetal calf serum.
(§2) After 4 h, medium was removed and serum-free medium, containing 0.5 μg/ml hydrocortisone and 50 μg/ml EGF, was added and renewed daily.
DAC was dissolved in PBS, 4-Me2N-BAVAH and AN-8 were dissolved in ethanol, to a concentration of 100 mM for DAC and 4-Me2N-BAVAH and 25 mM for AN-8.
(§3) 1) unstimulated cultures, referred to as “negative control” or “−EGF”, where hepatocytes are arrested at the mitogen-dependent R-point. 2) EGF-stimulated cultures, referred to as “positive control” or “+EGF”, in which EGF induces G1/S transition and mitosis. 3) EGF-stimulated cultures treated with DAC and/or in combination with 4-Me2N-BAVAH or AN-8.
DNA replication was measured as incorporation of radioactively labeled thymidine into newly synthesized DNA. Cells were incubated with [methyl-3H]-thymidine (25 Ci/mmol) for 24 hours and harvested at 72 hours in ice-cold PBS, the time point where DNA synthesis in untreated EGF-stimulated cultures is maximal. DNA was precipitated with 30% trichloroacetic acid (TCA) overnight at 4° C. After centrifugation, cells were washed once with 10% TCA and twice with 5% TCA. The pellet was solved in formic acid and radioactively labeled thymidine was measured by liquid scintillation counting.
From the moment of seeding, adult primary rat hepatocytes, stimulated with EGF 4 hours after plating and constantly thereafter, were exposed to different concentrations of 4-Me2N-BAVAH (10 μM, 15 μM, 20 μM, 25 μM and 50 μM), AN-8 (1 μM, 2.5 μM and 5 μM) or DAC (1 μM, 10 μM, 50 μM, 100 μM, 250 μM and 500 μM). [methyl-3H]-Thymidine incorporation was measured at 72 hours.
From the moment of seeding, adult primary rat hepatocytes, stimulated with EGF 4 hours after plating and constantly thereafter, were exposed to different combinations of 4-Me2N-BAVAH and DAC or AN-8 and DAC:
[methyl-3H]-Thymidine incorporation was measured at 72 hours.

[2] = tested on: EGF-stimulated adult primary rat hepatocytes; experiment: Albumin secretion into culture medium (ELISA); format: cell-based; settings: 48-72 hours of culture
Procedure: Hepatocytes (viability >80%) are isolated from male Sprague-Dawley rats by a two-step collagenase perfusion. Cells (0.4×10^5 cells/cm^2) are cultured in MEM/M199 (3:1, v/v), containing 1 mg/ml BSA, 5 μg/ml bovine insulin, 2 mM L-glutamine, antibiotics (7.3 IU/ml benzyl penicillin, 50 μg/ml streptomycin sulphate, 50 μg/ml kanamycin monosulphate and 10 μg/ml sodium ampicillin) and 10% (v/v) fetal calf serum.
After 4 h, medium was removed and serum-free medium, containing 0.5 μg/ml hydrocortisone and 50 μg/ml EGF, is added and renewed daily.
1) EGF-stimulated cultures, referred to as “positive control” or “control”. 2) EGF-stimulated cultures treated with DAC and/or in combination with 4-Me2N-BAVAH or AN-8.
Medium samples were analyzed for their albumin content by an enzyme-linked immunosorbent assay (ELISA) according to Dunn et al. 1991 (Biotechnol Prog 7(3): 237-245).
From the moment of seeding, adult primary rat hepatocytes, stimulated with EGF 4 hours after plating and constantly thereafter, were exposed to 50 μM 4-Me2N-BAVAH, 5 μM AN-8 or 500 μM DAC. Albumin secretion into the culture medium was measured between 48-72 hours of culture (FIG. 7A-C).
From the moment of seeding, adult primary rat hepatocytes, stimulated with EGF 4 hours after plating and constantly thereafter, were exposed to a combination of 25 μM 4-Me2N-BAVAH and 50 μM DAC. Albumin secretion into the culture medium is measured between 48-72 hours of culture (FIG. 8A).

[3] = tested on: EGF-stimulated cultured hepatocytes; experiment: Cell morphology by inverse light microscopy; format: cell-based, rat
Procedure: as §1, §2, §3
Cell morphology was analyzed by inverse light microscopy, using an Optiphot Nikon Phase Contrast microscope.

CYP1A1 = CYP1A1 protein expression (immunoblot); format: cell-based, rat; settings: increasing concentrations (DAC 1-500 μM, AN-8 1-5 μM); 72 h
Procedure: as §1, with “two step” for “two-step”, “serum. After 4 h, medium was removed and serum-free medium, containing 0.5 μg/ml hydrocortisone and 50 μg/ml EGF, was added and renewed daily. DAC was dissolved in PBS, whereas AN-8 was dissolved in ethanol to a concentration of 100 mM for DAC and 25 mM for AN-8.” for “serum.”
1) EGF-stimulated cultures, referred to as C. 2) EGF-stimulated cultures, exposed to 0.02% v/v ethanol, referred to as S. 3) EGF-stimulated cultures treated with DAC and/or AN-8.
At 72 h, cultured hepatocytes were harvested in ice-cold PBS. Cell pellets were lysed in homogenization buffer, sonicated and left for 1 hour on ice. After centrifugation, the protein concentration in the supernatant was determined. 50 μg proteins were separated by sodium dodecyl sulphate polyacrylamide gel electrophoresis (SDS-PAGE, 7.5%) and transferred to nitrocellulose membranes. Subsequently, membranes are immersed into Ponceau S to examine equal sample loading. […] Proteins were detected by using an enhanced chemiluminescence detection system. […]

| Compound | apoptosis (hepatoma cell lines) | apoptosis (primary hepatocytes) | dose-response of inhibition of DNA replication [1] | CYP1A1 protein expression vs untreated hepatocyte cultures (CYP1A1) | further results |
| --- | --- | --- | --- | --- | --- |
| CCN(CC)Cc1ccc2cc(COC(=O)Nc3ccc(C(=O)NO)cc3)ccc2c1 [ITF2357] | induce apoptosis | not | – | – | – |
| CN(C)c1ccc(C(=O)NCCCCC(=O)NO)cc1 [4-Me2N-BAVAH, 5-(4-dimethylaminobenzoyl)-aminovaleric acid hydroxamide] | – | – | clear dose-response relationship | – | inhibition of the DNA synthesis ([1]; 50 μM): complete inhibition; increase in albumin secretion compared to control cultures ([2]; 50 μM): 2.4 fold |
| CC(/C=C/C(=O)NO)=C\[C@@H](C)C(=O)c1ccc(N(C)C)cc1 [TSA, Trichostatin A] | induce apoptosis | not | – | – | – |
| O=C(CCCCCNC(=O)c1ccc(N2CCCC2)cc1)NO [AN-8] | – | – | clear dose-response relationship | dose-dependent higher CYP1A1 protein expression | inhibition of the DNA synthesis ([1]; 5 μM): complete inhibition; cell shape vs untreated control cultures with EGF alone ([3]; 5 μM): retained better the in vivo-like cuboidal shape; inhibition of proliferation (morphological appearance) vs untreated +EGF culture ([3]; 5 μM): clear inhibition of proliferation; increase in albumin secretion compared to control cultures ([2]; 5 μM): 2.1 fold |
| Nc1ncn([C@H]2C[C@H](O)[C@@H](CO)O2)c(=O)n1 [DAC, 5-aza-2′-deoxycytidine] | – | – | clear dose-response relationship | dose-dependent higher CYP1A1 protein expression | inhibition of the DNA synthesis ([1]; 500 μM): complete inhibition; cell shape vs untreated control cultures with EGF alone ([3]; 500 μM): retained better the in vivo-like cuboidal shape; inhibition of proliferation (morphological appearance) vs untreated +EGF culture ([3]; 500 μM): clear inhibition of proliferation; increase in albumin secretion compared to control cultures ([2]; 500 μM): 1.8 fold |
| CCCC(CCC)C(=O)O [valproate] | induce apoptosis | not | – | – | – |
